Measurements: patent publication US4272517A, “Permanent waving compositions” (Kanegafuchi Kagaku Kogyo Kabushiki Kaisha, priority 1978, dated 1981)
Each block holds one compound with its values, some of them ahead of it.

Tests used:
[1] = test system: mice; test: Acute oral toxicity (LD50) determined on mice; format: in vivo; conditions: oral administration
Source text: (§1) The N-carbamoylcysteine to be used in this invention is preferably N-carbamoyl-L-cysteine or N-carbamoyl-DL-cysteine from the viewpoint of practical usefulness but can be N-carbamoyl-D-cysteine. N-carbamoyl-L-cysteine can be prepared easily, for example, by reacting L-cysteine with potassium cyanate. Since it is possible to synthesize N-carbamoyl-DL-cysteine from an inexpensive industrial material, the compound can presumably be prepared more economically than N-carbamoyl-L-cysteine.

[2] = Acute oral toxicity (LD50) determined on mice; format: in vivo; conditions: mouse, in vivo, oral administration
Source text: as §1

[3] = format: physicochemical
Description: Eleven kinds of test solutions were prepared with use of L-cysteine and N-carbamoylcysteine in varying ratios as shown in Table 3 to test the solutions for storage stability. Basically these solutions have the following composition.
Each of the solutions was prepared by adding monoethanolamine (about 3 ml), L-cysteine, N-carbamoyl-L-cysteine and tetrasodium ethylenediaminetetraacetate to about 80 ml of purified water in the order mentioned with stirring, and adjusting the resulting solution to 100 ml with its pH adjusted to 9.1 with monoethanolamine. […] Test Solution A is a reference example.
The test solutions were prepared on the same day, placed into 200-ml colorless wide-mouthed reagent bottles respectively and allowed to stand at room temperature (20° to 26° C.) for 60 days with the mouths of the bottles left open. Consequently white powder of cystine separated out on the 9th day from Test Solution A containing L-cysteine alone, whereas Test Solutions B and C further containing N-carbamoyl-L-cysteine yielded white powder on the 15th day and 32nd day respectively. No powdery deposition was found in Test Solutions D to K even after the lapse of 60 days. […]

[4] = Solubility; format: physicochemical; conditions: at a pH of below 8.7
[5] = background statement; cited from earlier work

Compound: NC(=O)NC(CS)C(=O)O (racemic) [N-carbamoyl-DL-cysteine]
toxicity (in words) [1]: extremely low in toxicity
LD50 [2]: 13100 mg/kg

stabilizing effect on cysteine (in words) [3]: adds to the stability of cysteine
Compound: CC(=O)N[C@@H](CS)C(=O)O [N-acetylcysteine, N-acetyl-L-cysteine, reference compound]

Compound: NC(=O)N[C@@H](CS)C(=O)O [N-carbamoyl-L-cysteine]
toxicity (in words) [1]: extremely low in toxicity
LD50 [2]: 13500 mg/kg

Compound: NC(=O)N[C@@H](CS)C(=O)O [N-carbamoylcysteine]
solubility (in words) [4]: not easily soluble
stabilizing effect on cysteine (in words) [3]: exceedingly superior

Compound: N[C@@H](CSSC[C@H](N)C(=O)O)C(=O)O [cystine]
solubility in water (in words) [5]: hardly soluble in water
